Data taken from patent US10988433B2, “Cyclohexyl GPR40 agonists for the treatment of type II diabetes” (Janssen Pharmaceutica NV, priority 2016, dated 2021).

Tests used:
[1] = molecular target: T1, human GPR40 (Homo sapiens, UniProt O14842); assay: GPR40 calcium flux assay, HEK293 cells stably expressing human GPR40; type: cell-based; settings: transfected HEK293 cells stably expressing human GPR40, Fluo 8 dye, read-out: hGPR40 Ca2+ Assay EC50
T1 construct: expressed in transfected cells
Method: (§1) Compounds were tested in a calcium flux assay using transfected HEK293 cells stably expressing either human GPR40 or rat GPR40. Human GPR40 expressing cells were cultured in DMEM-High Glucose media supplemented with 10% fetal bovine serum, 1×L-Glutamine, 1×Penicillin/Streptomycin and 500 μg/mL G418. Rat GPR40 expressing cells were cultured in DMEM-High Glucose media supplemented with 10% fetal bovine serum and 1 μg/mL puromycin. Cells were plated into poly-D-lysine coated 384-well plates and cultured overnight in a 37° C. humidified tissue culture incubator under 5% CO2/[…] atmosphere. On the day of the experiment, the culture media was replaced with assay buffer (HBSS, 20 mM HEPES, 0.1% BSA) and the cells incubated at 37° C. for 1 h. Calcium-sensitive fluorescent dye (Fluo 8 No-Wash Calcium Dye, ABD Bioquest) was then added and the cells incubated for another 30 min at 37° C. followed by 15 min at room temperature while protected from the light. The cell plate and a plate of diluted compounds of Formula (I) were loaded into a fluorescent plate reader that added compounds onto the cells while measuring the fluorescence intensity of each well. The plate reader recorded fluorescence intensity at 1 second intervals for 8 min and provided the data for analysis in an Excel format. EC50 values were calculated using Prism (GraphPad) software.

[2] = molecular target: T2, rat GPR40 (Rattus norvegicus, UniProt Q8K3T4); assay: GPR40 calcium flux assay, HEK293 cells stably expressing rat GPR40; type: cell-based; settings: transfected HEK293 cells stably expressing rat GPR40, Fluo 8 dye, read-out: rGPR40 Ca2+ Assay EC50
T2 construct: expressed in transfected cells
Method: as §1

T1 sequence (O14842 whole entry): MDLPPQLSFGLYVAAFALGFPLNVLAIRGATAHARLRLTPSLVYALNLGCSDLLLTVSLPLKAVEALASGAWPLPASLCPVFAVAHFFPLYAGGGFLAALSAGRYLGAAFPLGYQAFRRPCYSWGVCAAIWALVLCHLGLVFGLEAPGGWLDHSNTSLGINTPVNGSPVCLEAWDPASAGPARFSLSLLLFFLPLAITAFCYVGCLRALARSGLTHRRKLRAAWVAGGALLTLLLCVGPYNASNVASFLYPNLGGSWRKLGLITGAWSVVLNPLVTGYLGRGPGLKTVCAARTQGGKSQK
T2 sequence (Q8K3T4 whole entry): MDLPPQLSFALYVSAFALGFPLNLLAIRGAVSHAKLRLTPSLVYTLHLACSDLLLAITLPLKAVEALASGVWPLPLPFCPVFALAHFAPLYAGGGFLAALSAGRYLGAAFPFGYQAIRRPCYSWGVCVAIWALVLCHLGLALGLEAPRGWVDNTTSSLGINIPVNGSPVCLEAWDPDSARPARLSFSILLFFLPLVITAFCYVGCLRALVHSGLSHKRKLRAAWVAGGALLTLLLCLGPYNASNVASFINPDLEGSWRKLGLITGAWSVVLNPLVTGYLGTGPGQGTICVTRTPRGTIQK

COc1cc([C@H]2CC[C@H](COc3cccc([C@H](C4CC4)C(C)(F)C(=O)O)c3)CC2)c(F)cn1 (stereo partly shown) [Cpd 61]
EC50 [1]: 0.25 nM | EC50 [2]: 0.53 nM

COc1cc([C@H]2CC[C@@H](COc3cc(C(CC(=O)O)C4CC4)ccn3)CC2)c(F)cn1 (stereo partly shown) [Cpd 7, 3-Cyclopropyl-3-(2-(((1s,4s)-4-(5-fluoro-2-methoxypyridin-4-yl)cyclohexyl)methoxy)pyridin-4-yl)propanoic acid]
EC50 [1]: 34.7 nM | EC50 [2]: 79.8 nM

COc1ccc(F)c([C@H]2CC[C@@H](COc3cc(C(CC(=O)O)C4CC4)ccn3)CC2)c1 (stereo partly shown) [Cpd 5, 3-Cyclopropyl-3-(2-(((1 s,4s)-4-(2-fluoro-5-methoxyphenyl)cyclohexyl)methoxy)pyridin-4-yl)propanoic acid]
EC50 [1]: 75.6 nM | EC50 [2]: 146 nM

COc1cccc(C2CCC(COc3cccc([C@H](C4CC4)C(C)(F)C(=O)O)c3)CC2)c1 (stereo partly drawn) [Cpd 66, (3S)-3-Cyclopropyl-2-fluoro-3-(3-((4-(3-methoxyphenyl)cyclohexyl)methoxy)phenyl)-2-methylpropanoic acid]
EC50 [1]: 0.25 nM | EC50 [2]: 0.4 nM

COc1ccc(F)c([C@H]2CC[C@H](COc3cc([C@H](C4CC4)C(C)(F)C(=O)O)ccn3)CC2)c1 (stereo partly drawn) [Cpd 79, (3S)-3-Cyclopropyl-2-fluoro-3-(2-(((1r,4S)-4-(2-fluoro-5-methoxyphenyl)cyclohexyl)methoxy)pyridin-4-yl)-2-methylpropanoic acid]
EC50 [1]: 13 nM | EC50 [2]: 28 nM

COc1ccc(F)c([C@H]2CC[C@H](COc3cc(C(CC(=O)O)C4CC4)ccn3)CC2)c1 (stereo partly shown) [Cpd 4, 3-Cyclopropyl-3-(2-(((1r,4r)-4-(2-fluoro-5-methoxyphenyl)cyclohexyl)methoxy)pyridin-4-yl) propanoic acid]
EC50 [1]: 0.7 nM | EC50 [2]: 2.6 nM

COc1ccc(F)c([C@H]2CC[C@H](/C=C/c3cccc([C@@H](CC(=O)O)C4CC4)c3)CC2)c1 [Cpd 28, (S)-3-cyclopropyl-3-(3-((E)-2-((1r,4S)-4-(2-fluoro-5-methoxyphenyl)cyclohexyl)vinyl)phenyl)propanoic acid]
EC50 [1]: 2.6 nM | EC50 [2]: 6.1 nM

COc1ccc(F)c([C@H]2CC[C@@H](CNc3cccc([C@@H](CC(=O)O)C4CC4)c3)CC2)c1 [Cpd 47, (S)-3-cyclopropyl-3-(3-((((1s,4R)-4-(2-fluoro-5-methoxyphenyl)cyclohexyl)methyl)amino)phenyl)propanoic acid]
EC50 [1]: 71.5 nM | EC50 [2]: 147 nM

CCc1ccc(Cl)c(C2CCC(COc3cccc([C@H](C4CC4)C(C)(F)C(=O)O)c3)CC2)c1 (stereo partly drawn) [Cpd 65, (3S)-3-(3-((4-(2-Chloro-5-ethylphenyl)cyclohexyl)methoxy)phenyl)-3-cyclopropyl-2-fluoro-2-methylpropanoic acid]
EC50 [1]: 0.59 nM | EC50 [2]: 1.75 nM

COc1ccc(F)c([C@H]2CC[C@H](CCc3cccc([C@H](C4CC4)C(C)(F)C(=O)O)c3)CC2)c1 (stereo partly drawn) [Cpd 73, (3S)-3-Cyclopropyl-2-fluoro-3-(3-(2-((1r,4R)-4-(2-fluoro-5-methoxyphenyl)cyclohexyl)ethyl)phenyl)-2-methylpropanoic acid]
EC50 [1]: 0.22 nM | EC50 [2]: 0.46 nM

COc1cc([C@]2(OC)CC[C@@H](COc3cc([C@@H](CC(=O)O)C4CC4)ccn3)CC2)c(F)cn1 [Cpd 44, (S)-3-cyclopropyl-3-(2-(((1s,4R)-4-(5-fluoro-2-methoxypyridin-4-yl)-4-methoxycyclohexyl)methoxy)pyridin-4-yl) propanoic acid]
EC50 [1]: 9.9 nM | EC50 [2]: 29 nM

COc1ccc(F)c([C@H]2CC[C@H](COc3cccc(C(CC(=O)O)C4CC4)c3)CC2)c1 (mixture of isomers) [Cpd 56, 3-Cyclopropyl-3-(3-(((1r,4r)-4-(2-fluoro-5-methoxyphenyl)cyclohexyl)methoxy)phenyl) propanoic acid]
EC50 [1]: 3 nM | EC50 [2]: 14.4 nM

COc1ccc(F)c(C2CCC(OCc3cccc([C@H](C4CC4)C(C)(F)C(=O)O)c3)CC2)c1 (stereo partly drawn) [Cpd 78, (3S)-3-Cyclopropyl-2-fluoro-3-(3-(((4-(2-fluoro-5-methoxyphenyl)cyclohexyl)oxy)methyl)phenyl)-2-methylpropanoic acid]
EC50 [1]: 2.2 nM | EC50 [2]: 5.5 nM

COc1ccc(F)c([C@H]2CC[C@H](CNc3cccc([C@@H](CC(=O)O)C4CC4)c3)CC2)c1 [Cpd 40, (S)-3-Cyclopropyl-3-(3-((((1r,4 S)-4-(2-fluoro-5-methoxyphenyl)cyclohexyl)methyl)amino)phenyl)propanoic acid]
EC50 [1]: 22 nM | EC50 [2]: 21 nM

COc1cc([C@H]2CC[C@H](COc3cccc([C@H](C4CC4)[C@@](C)(F)C(=O)O)c3)CC2)c(F)cn1 [Cpd 62]
EC50 [1]: 0.25 nM | EC50 [2]: 0.56 nM

COc1cc([C@H]2CC[C@H](COc3cccc([C@H](C4CC4)[C@](C)(F)C(=O)O)c3)CC2)c(F)cn1 [Cpd 63]
EC50 [1]: 32.6 nM | EC50 [2]: 86.7 nM

COc1ccc(C)c(C2CCC(COc3cccc([C@H](C4CC4)C(C)(F)C(=O)O)c3)CC2)c1 (stereo partly drawn) [Cpd 70, (3S)-3-Cyclopropyl-2-fluoro-3-(3-((4-(5-methoxy-2-methylphenyl)cyclohexyl)methoxy)phenyl)-2-methylpropanoic acid]
EC50 [1]: 0.16 nM | EC50 [2]: 0.15 nM

COc1cc(C2CCC(COc3cccc([C@@H](CC(=O)O)C4CC4)c3)C(CC(C)C)C2)c(F)cn1 (stereo partly drawn) [Cpd 30, (3S)-3-Cyclopropyl-3-(3-((4-(5-fluoro-2-methoxypyridin-4-yl)-2-isobutylcyclohexyl)methoxy)phenyl)propanoic acid]
EC50 [1]: 2.1 nM | EC50 [2]: 29.4 nM

COc1ccnc(C2CCC(COc3cc([C@@H](CC(=O)O)C4CC4)ccn3)CC2)n1 (stereo partly drawn) [Cpd 49, (S)-3-Cyclopropyl-3-(2-((4-(4-methoxypyrimidin-2-yl)cyclohexyl)methoxy)pyridin-4-yl)propanoic acid]
EC50 [1]: 244 nM | EC50 [2]: 1110 nM

COc1ccc(F)c([C@]2(O)CC[C@@H](COc3cccc([C@@H](CC(=O)O)C4CC4)c3)CC2)c1 [Cpd 3, (S)-3-Cyclopropyl-3-(3-(((1s,4R)-4-(2-fluoro-5-methoxyphenyl)-4-hydroxycyclohexyl)methoxy)phenyl)propanoic acid]
EC50 [1]: 24.8 nM | EC50 [2]: 160 nM

C[C@](F)(C(=O)O)[C@H](c1cccc(OC[C@H]2CC[C@H](c3cc(OC(F)(F)F)ccc3F)CC2)c1)C1CC1 [Cpd 74, (2R,3S)-3-Cyclopropyl-2-fluoro-3-(3-(((1r,4S)-4-(2-fluoro-5-(trifluoromethoxy)phenyl)cyclohexyl)methoxy)phenyl)-2-methylpropanoic acid]
EC50 [1]: 14.1 nM | EC50 [2]: 16.2 nM

COc1ccc(F)c(C2CCC(COc3cccc([C@@H](CC(=O)O)C4CC4)c3)C(CC(C)C)C2)c1 (stereo partly drawn) [Cpd 29, (3S)-3-Cyclopropyl-3-(3-((4-(2-fluoro-5-methoxyphenyl)-2-isobutylcyclohexyl)methoxy)phenyl)propanoic acid]
EC50 [1]: 17.9 nM | EC50 [2]: 40.9 nM

COc1ccc(F)c([C@H]2CC[C@H](COc3cccc([C@H](C4CC4)C(C)(F)C(=O)O)c3)CC2)c1 (stereo partly drawn) [Cpd 58, (3S)-3-Cyclopropyl-2-fluoro-3-(3-(((1r,4S)-4-(2-fluoro-5-methoxyphenyl)cyclohexyl)methoxy)phenyl)-2-methylpropanoic acid]
EC50 [1]: 0.3 nM | EC50 [2]: 0.23 nM

CCOC(CC(=O)O)c1cccc(OC[C@H]2CC[C@@H](c3cc(OC)ccc3F)CC2)c1 (stereo partly shown) [Cpd 50, 3-Ethoxy-3-(3-(((1s,4s)-4-(2-fluoro-5-methoxyphenyl)cyclohexyl)methoxy)phenyl) propanoic acid]
EC50 [1]: 500 nM | EC50 [2]: 656 nM

COc1cc([C@]2(OC)CC[C@H](COc3cc([C@@H](CC(=O)O)C4CC4)ccn3)CC2)c(F)cn1 [Cpd 45, (S)-3-Cyclopropyl-3-(2-(((1r,4S)-4-(5-fluoro-2-methoxypyridin-4-yl)-4-methoxycyclohexyl)methoxy)pyridin-4-yl)propanoic acid]
EC50 [1]: 258 nM | EC50 [2]: 855 nM

C[C@](F)(C(=O)O)[C@H](c1cccc(OCC2CCC(c3cc(F)ccc3F)CC2)c1)C1CC1 (stereo partly drawn) [Cpd 75, (2R,3S)-3-Cyclopropyl-3-(3-((4-(2,5-difluorophenyl)cyclohexyl)methoxy)phenyl)-2-fluoro-2-methylpropanoic acid]
EC50 [1]: 0.44 nM | EC50 [2]: 8.93 nM

COc1ccc(F)c([C@H]2CC[C@H](/C=C/c3cccc([C@H](C4CC4)C(C)(F)C(=O)O)c3)CC2)c1 (stereo partly drawn) [Cpd 72, (3S)-3-Cyclopropyl-2-fluoro-3-(3-((E)-2-((1r,4S)-4-(2-fluoro-5-methoxyphenyl)cyclohexyl)vinyl)phenyl)-2-methylpropanoic acid]
EC50 [1]: 1.88 nM | EC50 [2]: 2.48 nM

COc1ccc(F)c([C@]2(F)CC[C@H](COc3cccc([C@@H](CC(=O)O)C4CC4)c3)CC2)c1 [Cpd 19, (S)-3-Cyclopropyl-3-(3-(((1r,4S)-4-fluoro-4-(2-fluoro-5-methoxyphenyl)cyclohexyl)methoxy)phenyl)propanoic acid]
EC50 [1]: 82.5 nM | EC50 [2]: 211 nM

COc1ccc(C(=O)Nc2ccccn2)c(C2CCC(COc3cccc([C@H](C4CC4)C(C)(F)C(=O)O)c3)CC2)c1 (stereo partly drawn) [Cpd 71, (3S)-3-Cyclopropyl-2-fluoro-3-(3-((4-(5-methoxy-2-(pyridin-2-ylcarbamoyl)phenyl)cyclohexyl)methoxy)phenyl)-2-methylpropanoic acid]
EC50 [1]: 1.9 nM | EC50 [2]: 2.36 nM
